Data as given in ChEMBL document CHEMBL5370632, “Expanding the Chemical Space: New Approach to Cell-Permeable Drugs” (ACS Med Chem Lett, 2023).

Columns and labels:
Bcr/Abl fusion protein [1] = biological target: Bcr/Abl fusion protein (Homo sapiens, UniProt P00519); type: protein assay
Description: Inhibition of wild type human BCR-ABL1 using Tyr2 peptide as substrate incubated for 1 hrs by FRET based Z-LYTE assay

K562 [2] = assay: Antiproliferative activity against human K562 cells assessed as inhibition of cell growth incubated for 3 days by celltiter-glo 2.0 assay; type: functional, cell-based; settings: K562, 72 h
K562 [3] = assay: Antiproliferative activity against human K562 cells expressing ABL T315I mutant assessed as inhibition of cell growth incubated for 3 days by celltiter-glo 2.0 assay; type: functional, cell-based; settings: K562, 72 h
Bcr/Abl fusion protein [4] = biological target: Bcr/Abl fusion protein (Homo sapiens, UniProt P00519, T315I); assay: Inhibition of human BCR-ABL1 T315I mutant using Tyr2 peptide as substrate incubated for 1 hrs by FRET based Z-LYTE assay; type: protein assay
K562 [5] = assay: cells; settings: Homo sapiens, K562, 72 h
K562 [6] = assay: cells; settings: Homo sapiens, K562, 72 h; remark: listed apart in the source

Cc1ccc(C(=O)Nc2ccc(CN3CCN(C(=O)CCOCCOCCOCCOCCOCCOCCOCCOCCOCCOCCOCCOCCOCCOCCOCCOCCOCCOCCOCCOCCOCCOCCOCCOCCNC(=O)C4CCN(c5ncc(C(=O)Nc6ccc(OC(F)(F)Cl)cc6)cc5-c5ccn[nH]5)CC4)CC3)c(C(F)(F)F)c2)cc1C#Cc1cnc2cccnn12
EC50 (Bcr/Abl fusion protein [1]): 3.57 nM
EC50 (K562 [2]): 0.87 nM
EC50 (K562 [3]): 26.3 nM
EC50 (Bcr/Abl fusion protein [4]): 64 nM

Cc1nc(Nc2ncc(C(=O)Nc3c(C)cccc3Cl)s2)cc(N2CCN(C(=O)CCOCCOCCOCCOCCOCCOCCOCCOCCOCCOCCNC(=O)C3CCN(c4ncc(C(=O)Nc5ccc(OC(F)(F)Cl)cc5)cc4-c4ccn[nH]4)CC3)CC2)n1
EC50 (Bcr/Abl fusion protein [1]): 0.8 nM
EC50 (K562 [2]): 2.49 nM
EC50 (K562 [3]): > 300 nM
EC50 (Bcr/Abl fusion protein [4]): 23.8 nM

Cc1nc(Nc2ncc(C(=O)Nc3c(C)cccc3Cl)s2)cc(N2CCN(C(=O)CCOCCOCCOCCOCCOCCOCCOCCOCCOCCOCCOCCOCCNC(=O)C3CCN(c4ncc(C(=O)Nc5ccc(OC(F)(F)Cl)cc5)cc4-c4ccn[nH]4)CC3)CC2)n1
EC50 (Bcr/Abl fusion protein [1]): 0.44 nM
EC50 (K562 [2]): 2.47 nM
EC50 (K562 [3]): > 300 nM
EC50 (Bcr/Abl fusion protein [4]): 7.23 nM

Cc1nc(Nc2ncc(C(=O)Nc3c(C)cccc3Cl)s2)cc(N2CCN(CCO)CC2)n1 [DASATINIB]
EC50 (K562 [5]): 12 nM
EC50 (K562 [6]): 0.26 nM
